US11014929B2, “Pyrazolopyrimidine compounds and uses thereof” (Incyte Corporation, priority 2016, dated 2021)

Target: HPK1 (Homo sapiens (Human), UniProt Q92918)
Assay: HPK1 Kinase Binding Assay
Details: LanthaScreen tracer 222 binding, active HPK1, one hour incubation at 25° C.
How it was run: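 This is a LanthaScreen tracer-binding format: a tracer 222/Eu-anti-GST antibody mix (18 nM and 4 nM solution) is added to active HPK1 (4 nM solution) with 3-fold, 11-point compound dilutions. Incubation is 1 h at 25 °C in HEPES pH 7.5 buffer before reading, and Ki is determined.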

Chain of HPK1 (Q92918 1-346): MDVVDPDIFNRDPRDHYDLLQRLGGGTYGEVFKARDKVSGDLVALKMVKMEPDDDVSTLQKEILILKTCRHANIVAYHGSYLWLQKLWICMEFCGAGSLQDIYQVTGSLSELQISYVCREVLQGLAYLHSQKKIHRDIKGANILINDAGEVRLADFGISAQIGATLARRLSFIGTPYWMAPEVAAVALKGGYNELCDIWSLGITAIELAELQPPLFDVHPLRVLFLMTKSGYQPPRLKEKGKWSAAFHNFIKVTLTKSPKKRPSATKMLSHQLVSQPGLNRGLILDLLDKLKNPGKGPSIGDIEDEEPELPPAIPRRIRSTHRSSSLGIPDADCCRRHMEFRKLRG

SMILES | Ki [µM]
CNC1CCc2c1cc(F)c(-c1ncc3[nH]nc(-c4cnc(N5CCN(C)CC5)nc4)c3n1)c2F (stereo not shown) [Example 114, 4,6-Difluoro-N-methyl-5-(3-(2-(4-methylpiperazin-1-yl)pyrimidin-5-yl)-1H-pyrazolo[4,3-d]pyrimidin-5-yl)-2,3-dihydro-1H-inden-1-amine] | ≤ 0.1
CNC1CCc2cc(F)c(-c3ncc4[nH]nc(-c5ccc(N6CCOCC6)nc5)c4n3)c(F)c2C1 (stereo not shown) [Example 115, 6,8-Difluoro-N-methyl-7-(3-(6-morpholinopyridin-3-yl)-1H-pyrazolo[4,3-d]pyrimidin-5-yl)-1,2,3,4-tetrahydronaphthalen-2-amine] | ≤ 0.1
CNC1CCCc2c1cc(F)c(-c1ncc3[nH]nc(-c4ccc(N5CCOCC5)nc4)c3n1)c2F (stereo not shown) [Example 116, 5,7-Difluoro-N-methyl-6-(3-(6-morpholinopyridin-3-yl)-1H-pyrazolo[4,3-d]pyrimidin-5-yl)-1,2,3,4-tetrahydronaphthalen-1-amine] | ≤ 0.1
NC1CCCc2c1cc(F)c(-c1ncc3[nH]nc(-c4ccc(N5CCOCC5)nc4)c3n1)c2F (stereo not shown) [Example 117, 5,7-Difluoro-6-(3-(6-morpholinopyridin-3-yl)-1H-pyrazolo[4,3-d]pyrimidin-5-yl)-1,2,3,4-tetrahydronaphthalen-1-amine] | ≤ 0.1
NC1CCc2cc(F)c(-c3ncc4[nH]nc(-c5ccc(N6CCOCC6)nc5)c4n3)c(F)c21 (stereo not shown) [Example 118, 5,7-Difluoro-6-(3-(6-morpholinopyridin-3-yl)-1H-pyrazolo[4,3-d]pyrimidin-5-yl)-2,3-dihydro-1H-inden-1-amine] | ≤ 0.1
COc1c(-c2ncc3[nH]nc(-c4ccc(N5CCOCC5)nc4)c3n2)c(F)cc2c1C(N)CC2 (stereo not shown) [Example 119, 5-Fluoro-7-methoxy-6-(3-(6-morpholinopyridin-3-yl)-1H-pyrazolo[4,3-d]pyrimidin-5-yl)-2,3-dihydro-1H-inden-1-amine] | ≤ 0.1

The next lines start with the values.

Ki [µM] | SMILES
≤ 0.1 | CNC1CCCc2c1ccc(F)c2-c1ncc2[nH]nc(-c3ccc(N4CCN(C)CC4)nc3)c2n1 (stereo not shown) [Example 120, 6-Fluoro-N-methyl-5-(3-(6-(4-methylpiperazin-1-yl)pyridin-3-yl)-1H-pyrazolo[4,3-d]pyrimidin-5-yl)-1,2,3,4-tetrahydronaphthalen-1-amine]
≤ 0.1 | CN1CCN(c2ccc(-c3n[nH]c4cnc(-c5c(F)ccc6c5CCCC6N)nc34)cc2)CC1 (stereo not shown) [Example 121, 6-Fluoro-5-(3-(4-(4-methylpiperazin-1-yl)phenyl)-1H-pyrazolo[4,3-d]pyrimidin-5-yl)-1,2,3,4-tetrahydronaphthalen-1-amine]
≤ 0.1 | CNCc1cc(F)c(-c2ncc3[nH]nc(-c4ccc(N5CCC(C)(O)CC5)nc4)c3n2)c(F)c1 [Example 122, 1-(5-(5-(2,6-Difluoro-4-((methylamino)methyl)phenyl)-1H-pyrazolo[4,3-d]pyrimidin-3-yl)pyridin-2-yl)-4-methylpiperidin-4-ol]
≤ 0.1 | CNCc1cc(F)c(-c2ncc3[nH]nc(-c4ccc(N5CCN(CCOC)CC5)cc4)c3n2)c(F)c1 [Example 123, 1-(3,5-Difluoro-4-(3-(4-(4-(2-methoxyethyl)piperazin-1-yl)phenyl)-1H-pyrazolo[4,3-d]pyrimidin-5-yl)phenyl)-N-methylmethanamine]
≤ 0.1 | CCN1CCN(c2ccc(-c3n[nH]c4cnc(-c5c(F)cc(CNC)cc5C(F)(F)F)nc34)cc2)CC1 [Example 124, 1-(4-(3-(4-(4-Ethylpiperazin-1-yl)phenyl)-1H-pyrazolo[4,3-d]pyrimidin-5-yl)-3-fluoro-5-(trifluoromethyl)phenyl)-N-methylmethanamine]
≤ 0.1 | CCN1CCN(c2ccc(-c3n[nH]c4cnc(-c5c(C)cc(C6CCCCN6)cc5F)nc34)cc2)CC1 (stereo not shown) [Example 125, 3-(4-(4-Ethylpiperazin-1-yl)phenyl)-5-(2-fluoro-6-methyl-4-(piperidin-2-yl)phenyl)-1H-pyrazolo[4,3-d]pyrimidine]
≤ 0.1 | CNCc1cc(F)c(-c2ncc3[nH]nc(-c4ccc(N5CCO[C@@H](COC)C5)nc4)c3n2)c(C(F)(F)F)c1 [Example 126, (R)-1-(3-Fluoro-4-(3-(6-(2-(methoxymethyl)morpholino)pyridin-3-yl)-1H-pyrazolo[4,3-d]pyrimidin-5-yl)-5-(trifluoromethyl)phenyl)-N-methylmethanamine]
